Patent US5989846A, “Assays to identify inducers of plant defense resistance” (Rutgers, The State University of New Jersey, priority 1995, dated 1999)

Assays:
[1] = system: resistance or PR gene expression; parameters: key: ++: indicates a high level of biological activity; +: indicates a lower level of biological activity; ±: indicates low, but detectable biological activity in some assays; -: indicates no biological activity; details: Table 3; values reported in literature; cited from earlier work
[2] = system: salicylic acid binding protein; test: Competitive [14C] salicylic acid binding assay (spin-column); parameters: species or system tobacco; details: for Inhibition (%) 2× / Inhibition (%) 10×: [14C] salicylic acid 20 μM; for Inhibition (%) 2×: 40 μM (2×) unlabeled competitor; for Inhibition (%) 10×: 200 μM (10×) unlabeled competitor
Experimental: The 180 kDa native binding protein isolated was tested for binding affinity and specificity. A competitive assay was established using salicylic acid binding protein fractionated from plants as previously described.
A key element during the characterization and the purification process is a simple, inexpensive, sensitive and reliable method for determining the salicylic acid binding activity. For this purpose, spin-column exclusion chromatography was used to separate the bound [^14 C] salicylic acid (excluded) from the bulk free salicylic acid (included). Specifically, a 1.5 ml Eppendorf tube was punctured at the tip with a 20-gauge needle and a small amount of glass wool was added to cover the small hole. The tube was then filled with Bio-Gel P-6DG desalting gel (exclusion limit 6 KDa; purchased from Bio-Rad, Melville, N.Y.) which have been swollen in water. An alternative gel is Sephadex G-25 fine (from Pharmacia, Piscataway, N.J.). Excess liquid in the gel was removed and centrifuged for 5 minutes at full speed in a Dynamic centrifuge (Becton Dickinson). The process was then repeated several times until the gel filled the tube. After incubation of an aliquot of the extract or column fractions for 2 hr at 4° C. with 5 μM-20 μM [^14 C salicylic acid] (specifically radioactivity 55 Ci/mol; purchased from New England Nuclear), 150 μl of proteins binding sample was loaded onto the tube column, which was then rapidly centrifuged for 2 minutes at full speed and the solution of proteins and bound [^14 C-salicylic acid] that was excluded from the gel was collected into another tube that had been placed under the tube column during the centrifugation. One hundred microliters of this solution was then used to determine the amount of bound salicylic acid. […] For example, to determine the inhibitory effect of various salicylic acid analogues on salicylic acid binding activity, these individual analogues were included in the binding mixture containing both the protein and [^14 C] salicylic acid during the 2 hr incubation, and resulting binding activity was determined in comparison to the activity in the absence of these analogues. Likewise, to determine the effect of pH and antioxidants on the binding activity the protein sample was either dialyzed against a large volume of buffers with different pH or antioxidants were added to the protein sample to various concentrations and the resulting binding activities were then determined with the spin-column method in comparison with the activity determined in the absence of these treatments.

PR1 genes = test: PR-1 protein/gene expression in tobacco leaves (immunoblot); assay type: in vivo; details: for Induction of PR1 gene expression: tobacco leaves
Experimental: The level of PR1 protein in tobacco leaves was analyzed by immunoblot analysis to establish biological activity. Three leaf discs (1 cm in diameter) were homogenized in 200 microliters of buffer containing 50 mM Tris (pH 8.0), 1 mM EDTA, 12 mM beta-mercaptoethanol and 10 mg/ml phenylmethylsulfonyl fluoride. The homogenate was centrifuged at full speed for 10 minutes in an Eppendorf microcentrifuge. The supernatant was fractionated with 15% polyacrylamide gel under denatured conditions. Protein blotting was done with a monoclonal antibody specific to PR1 protein and protein-antibody complexes were detected with an ECL kit from Amersham.
PR gene expression is both induced by SA and associated with the development of SAR. Therefore, it was of interest to test whether SA's mechanism of action for the induction of PR genes was via its inhibition of catalases which leads to enhanced H2 O2 levels. To address this question, H2 O2 abundance was artificially raised in tobacco leaves by treating with H2 O2 or compounds which either inhibit the catalase activity, like SA itself, or promote generation of H2 O2 in vivo. […]

catalase = test: In vivo catalase activity in tobacco suspension cells (oxygen electrode); assay type: cell-based; parameters: Inhibition (%) Catalase activity: concentration or dose not given beside the values; details: for Inhibition (%) Catalase activity: Table 8
Experimental: This was determined by adding increasing concentrations of SA or INA to tobacco suspension cells (derived from cultivar Xanthi nc), as described below. The tobacco suspension cell culture was grown in the dark in MS medium at approximately 22° C. with agitation (160 rpm). Cells were maintained by diluting 10-fold every 5 days. For experimentation, 5 ml of suspension cells obtained 3 days after dilution was transferred to a 25 ml Erlenmeyer flask and agitated (100 rpm) at room temperature in the absence or presence of SA or INA which had been adjusted to pH 5.8. After 1 hr, 1 ml of the treated cell suspension was transferred to 7 ml of fresh MS medium containing SA or INA in a 10 ml beaker (density was approximately 6 mg cells per ml). Cells were maintained in suspension with a magnetic stir bar. In vivo catalase activity was determined by measuring, with an oxygen electrode, the rate of H2 O2 -dependent O2 production immediately after addition of H2 O2 to 10 mM final concentration.

SABP/catalase = test: Competition with 14C-labeled SA for SABP/catalase in crude leaf extracts; assay type: binding, tobacco; details: for Inhibition (%) [14C]SA binding: Table 8, 14C-labeled SA 20 μM, 1 mM unlabeled compound, crude leaf extracts
ascorbate peroxidase = test: Ascorbate peroxidase activity in tobacco leaf extracts; assay type: biochemical, Nicotiana tabacum cv. Xanthi nc; details: 200 μM compound, corrected for quenching of auto oxidation
Experimental: […] Two grams of leaves from 6-8 week old tobacco plants (Nicotiana tabacum cv. Xanthi nc) grown at 22° C. in a 14 hr light cycle were homogenized under liquid nitrogen using a pestle and mortar.
To obtain ascorbate peroxidase-containing extracts, the soluble proteins were extracted by grinding the powder in 10 ml of 100 mM potassium phosphate, pH 7, containing […] ascorbate and 1% (weight/volume) polyvinylpyrrolidone, with a small amount of quartz sand. The homogenate was centrifuged at 14,000 g for 5 min. […] The pellet resulting from centrifugation (14,000 g, 15 min.) was resuspended in extraction buffer (100 mM potassium phosphate, pH7, containing 0.25 mM ascorbate and 1% (weight/volume) polyvinylpyrrolidone) and desalted on a PD-10 column (Pharmacia) equilibrated with 50 mM potassium phosphate, pH 7, containing 100 μM ascorbate. The extract was used immediately. […] The amount of protein per assay was 30-50 μg. Oxidation of ascorbate was followed by the decrease in the absorbance at 290 nm.
The values illustrated in FIG. 17 are the mean values for three replicated assays.

[3] = target: T1, catalase activity of SABP (Nicotiana tabacum, UniProt P49319); test: Catalase activity of highly purified SABP (luminol method); assay type: biochemical, tobacco; details: 0.05 h; 1 mM SA or analogue, 1 mM H2O2, 500 ng highly purified SABP
T1 sequence (P49319 1-492): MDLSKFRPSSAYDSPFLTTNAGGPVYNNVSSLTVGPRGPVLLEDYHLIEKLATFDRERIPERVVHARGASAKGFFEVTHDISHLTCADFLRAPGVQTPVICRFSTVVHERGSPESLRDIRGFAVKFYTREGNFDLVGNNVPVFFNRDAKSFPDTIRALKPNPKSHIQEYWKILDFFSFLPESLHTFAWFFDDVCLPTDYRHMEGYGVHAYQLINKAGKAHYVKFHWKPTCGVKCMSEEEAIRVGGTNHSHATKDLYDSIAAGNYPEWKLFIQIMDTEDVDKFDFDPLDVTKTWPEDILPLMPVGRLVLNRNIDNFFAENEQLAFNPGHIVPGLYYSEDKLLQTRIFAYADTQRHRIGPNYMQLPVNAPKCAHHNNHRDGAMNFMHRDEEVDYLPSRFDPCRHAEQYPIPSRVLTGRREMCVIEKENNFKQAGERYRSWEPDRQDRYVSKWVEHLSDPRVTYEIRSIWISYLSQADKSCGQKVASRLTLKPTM
Experimental: Aliquots (50 μl) were removed from the assay mixture at 30 second intervals to assay for amount of H2 O2 remaining using the luminol method as has been described by Warm and Laties, Phytochem. […] The tube was placed in the measuring chamber and assay was initiated with automatic injection into the mixture of 100 μl of 0.5 mM K3 Fe(CN)6 in 0.2N NH4 OH, pH 9.5. Measurements were integrated over 5 second periods. H2 O2 was calculated from the standard curve constructed with known amounts of H2 O2. Rate constants of SABP catalase activity in the presence or absence of SA or its analogues were then calculated based on a first-order mechanism.

SABP = system: SABP; parameters: concentration or dose not given beside the values; details: Table 6; previously published data (Chen et al. 1993); cited from earlier work

Row | SMILES | Inhibition (%) 2× [2] | Inhibition (%) 10× [2] | Inhibition (%) [14C]SA binding (SABP/catalase) | Biological activity [1] | Inhibition (%) Catalase activity (catalase) | further results
1 | Nc1ccc(O)c(C(=O)O)c1 [5-Aminosalicylic acid] | 1% | -2% |  | - |  | 
2 | O=Cc1cc(Cl)nc(Cl)c1 [analogue #7] |  |  |  |  |  | Induction of PR-1 protein synthesis / PR-1 gene induction (in words) (PR1 genes; N.t. cv. Xanthi nc): active; Inhibition of catalase activity in vivo (in words) (catalase): active; Inhibition of binding of 14C-labeled SA to SABP/catalase in vitro (in words) (SABP/catalase; in vitro): much less active
3 | O=C(O)c1ccccc1S [Thiosalicylic acid] | -5% | 1% |  | - |  | % Inhibition of ascorbate peroxidase (ascorbate peroxidase): 0 ± 2%
4 | O=C(O)c1cc(Cl)cc(Cl)c1O [STR11] |  |  | 85% |  | 100% | 
5 | O=C(O)c1ccc(O)cc1 [STR13] |  |  | 0% |  | 0% | 
6 | O=C(O)c1ccccc1O [STR8] |  |  | 90% |  | 84% | 
7 | O=C(O)c1ccc(O)c(O)c1 [3,4-Dihydroxybenzoic acid] |  |  |  |  |  | inhibition at 1000 µM [3]: 5.1%; Inhibition (%) [14C]SA binding (SABP): 0%
8 | O=C(O)C=Cc1ccccc1O [O-coumaric acid] |  |  |  |  |  | Induction of PR1 gene expression (PR1 genes): did not induce PR1 gene expression; Competition for binding to salicylic acid binding protein ([2]; competitive binding assay): unable to compete for binding
9 | O=C(O)c1ccc(Cl)cc1O [STR9] |  |  | 88% |  | 95% | 
10 | O=C(O)c1ccc(O)cc1O [2,4-Dihydroxybenzoic acid] | -1% | -2% |  | - |  | inhibition at 1000 µM [3]: 5.2%; Inhibition (%) [14C]SA binding (SABP): -4%
11 | Oc1ccccc1O [Catechol] | 0% | 1% |  | - |  | 
12 | Nc1cccc(C(=O)O)c1O [3-Aminosalicylic acid] | 1% | 5% |  | - |  | 
13 | CCOc1ccccc1C(=O)O [2-Ethoxybenzoic acid] | -3% | 2% |  | - |  | 
14 | OO [H2 O2, hydrogen peroxide] |  |  |  |  |  | Induction of PR1 gene expression (PR1 genes): induced the expression of PR-1 genes
15 | O=C(O)c1cc(Cl)nc(Cl)c1 [STR1] |  |  | 65% |  | 98% | 
16 | O=C(O)c1ccccc1Cl [2-Chlorobenzoic acid] | 0% | 2% |  | - |  | 
17 | O=C(O)c1ccccc1 [Benzoic acid] | 14% | 25% |  | + |  | Induction of PR1 gene expression (PR1 genes): able to induce the expression of PR1 genes; Concentration needed relative to salicylic acid for similar levels of PR1 gene expression (PR1 genes; tobacco, FIG. 6A): approximately ten-fold; Inhibition of [14C] salicylic acid binding relative to unlabeled salicylic acid ([2]; as well as unlabeled salicylic acid): about 20%
18 | O=C(O)CO [glycolate] |  |  |  |  |  | Induction of PR1 gene expression (PR1 genes): induced
19 | O=C(O)c1cc(O)c(O)cc1O [3,4,6-Trihydroxybenzoic acid] | 1% | -1% |  | - |  | 
20 | O=C(O)c1ccc(O)c(O)c1O [2,3,4-Trihydroxybenzoic acid] | 1% | 2% |  | - |  | 
21 | O=C(O)c1cc(Cl)ccc1O [STR10] |  |  | 87% |  | 100% | 
22 | C[n+]1ccc(-c2cc[n+](C)cc2)cc1 [paraquat] |  |  |  |  |  | Induction of PR1 gene expression (PR1 genes): induced
23 | Nc1ccc(C(=O)O)c(O)c1 [4-Aminosalicylic acid] | 0% | -1% |  | - |  | % Inhibition of ascorbate peroxidase (ascorbate peroxidase): 9 ± 5%
24 | O=C(O)c1c(O)cc(O)cc1O [2,4,6-Trihydroxybenzoic acid] | -1% | 3% |  | - |  | 

Further lines, with some results ahead:

Row | Inhibition (%) 2× [2] | Inhibition (%) 10× [2] | Inhibition (%) [14C]SA binding (SABP/catalase) | SMILES | Biological activity [1] | Inhibition (%) Catalase activity (catalase) | further results
25 |  |  | 63% | O=C(O)c1cc(F)nc(F)c1 [STR3] |  | 48% | 
26 |  |  | 25% | O=Cc1cc(Cl)nc(Cl)c1 [STR4] |  | 79% | 
27 |  |  | 1% | O=C(O)c1cccc(O)c1 [STR12] |  | 0% | 
28 |  |  | 11% | CC(C)c1cc(C(=O)O)cc(O)n1 [STR6] |  | 15% | 
29 |  |  | 7% | CCCc1cc(C(=O)O)cc(O)n1 [STR7] |  | 4% | 
30 |  |  | 69% | O=C(O)c1cc(Br)nc(Br)c1 [STR2] |  | 100% | 
31 |  |  | 19% | O=C(O)c1cc(O)nc(O)c1 [STR5] |  | 25% | 
